The text below walks through data of patent publication US9289430B2, “Compounds and methods for inhibiting phosphate transport” (Ardelyx, Inc., priority 2010, dated 2016).

In one data set the test system is NaPi2b. Briefly: Competition with phosphate: uptake assay repeated at 2.1 vs 0.1 mM phosphate. The format is cell-based. The settings on record: potency for inhibition of NaPi2b at 2.1 vs 0.1 mM phosphate. The source says: In certain preferred embodiments, the phosphate transport inhibitors of the present invention are not competitive inhibitors with respect to phosphate of Na/phosphate co-transport. In certain other preferred embodiments, the phosphate transport inhibitors of the invention are non-competitive inhibitors. Non-competitive inhibitors maintain their degree of inhibition irrespective of the local phosphate concentration. This feature is an important aspect in providing an efficient blockade of intestinal transport in postprandial state, where the local concentration of dietary phosphate can attain concentration as high as 10 mM. It is believed that competitive inhibitors are too sensitive to local phosphate concentration and unable to block phosphate uptake following a high phosphorus meal. Various methods are available for determining whether a phosphate transport inhibitor is non-competitive or competitive. For example, a phosphate uptake assay can be performed and the IC50 values for a compound at different phosphate concentrations can be determined (e.g., “Enzyme kinetics”, I. Segel, 1975, John-Wiley & Sons, p. 123). IC50 values for non-competitive inhibitors will remain the same or similar with respect to the phosphate concentration, whereas IC50 values for competitive inhibitors will increase (i.e. lose potency) as phosphate concentration increases.
To ascertain if an inhibitor was competitive for binding with phosphate, the procedure was repeated, but raising the concentration of the substrate in the assay mixture from 0.1 to 2.1 mM phosphate.

The test system of data set [1] is Uptake of Phosphate from the Intestine. Briefly: In vivo bolus phosphorus challenge. The settings on record: rats on low-phosphorus diet, oral drug dose 30 (unit not given) 15 min before phosphate bolus, serum 30 min post bolus. Set-up: species or system Sprague-Dawley rats. The procedure:
By pretreating animals with a low phosphorus diet followed by the subsequent dosing of a phosphorus bolus, serum phosphorus levels were monitored after 30 minutes as a surrogate for intestinal phosphorus absorption. […] The in vivo bolus phosphorus challenge model used here mimics this model in rats.
Male, 7-week-old Sprague-Dawley rats (Charles-River laboratories international, Hollister, Calif.) were allowed to acclimatize for a minimum of 3 days before switching to a synthetic low-phosphorus diet (TD.85010, Harlan Teklad, Madison, Wis.) which contains 0.1% phosphorus and 0.6% calcium. At day 5, testing compounds or vehicle alone (as indicated) were orally administered at the indicated dose in a volume of 5 ml/kg, followed by a bolus gavage of monobasic sodium phosphate (1 mmol in 1 ml) 15 min after compound dosing. Serum was collected via retroorbital bleeding 30 min post phosphate bolus and phosphate levels were determined utilizing an ACE ALERA blood chemistry analyzer (Alfa Wassermann Diagnostic Technologies, West Caldwell, N.J.).
The extent of inhibition by test compounds on the elevation of serum phosphate levels in response to the bolus of phosphate is shown in Table 3 (data are expressed as % Inhibition, with 6-10 animals per data point). The differences between groups were evaluated by one-way analysis of variance with Dunnett's post hoc tests.

Data set [2] has as its system Uptake of Phosphorus from the Intestine. Briefly: In vivo co-dosing in chow, urinary P output relative to P consumed. Set-up: species or system Sprague-Dawley rats. The settings on record: rats, compound in chow, nominal 100 mg/kg/day (mean actual 104-105 mg/kg/day), mean of 24-96 h, vs control. An excerpt:
Male, 7-week-old Sprague-Dawley rats (Charles-River laboratories international, Hollister, Calif.) were allowed to acclimate for a minimum of 3 days. The experiment was initiated by switching animals to a synthetic diet (0.6% phosphorus and 0.6% calcium, Harlan Teklad TD.84122) for four days. After this time, the animals were placed into metabolic cages for daily monitoring of food and water consumption, as well as urine and fecal collections. Test compounds were incorporated into the powdered diet listed above containing 3% chocolate flavoring (w/w, BioSery #7345) at 1.3 mg test compound per gram of diet to achieve an average daily nominal dose of 100 mg/kg/day. The actual dose received by each animal was later determined by measuring prepared diet consumption and body weight. Urine samples were collected in three daily periods from 24-48, 48-72, and 72-96 hours of drug dosing. […] Phosphorous levels in the urine were determined by anion exchange chromatography using a Dionex ICS-3000 ion chromatography system. […] Elution of urine phosphate ions was monitored via conductivity detector and reported as ppm relative to a standard ion solution containing phosphate. Daily urinary P output relative to the P consumed in the prepared diet for each animal was calculated. […] The differences between the means of control and treated groups were evaluated by t tests. […]

Data set [3] can be described thus: Stability in simulated gastric and intestinal fluid. The format is in vitro ADME. The settings on record: 6 hr, 1-20 μM; for % remaining, SGF: simulated gastric fluid with 3 mg/mL pepsin; for % remaining, SIF: simulated intestinal fluid with 3 mg/mL pancreatin. The procedure: Test compounds were incubated at 1-20 μM in simulated gastric fluid (SGF; standard USP solution with 3 mg/mL pepsin) or simulated intestinal fluid (SIF; standard USP solution with 3 mg/mL pancreatin) for 3 hr or 6 hr. HPLC-UV or HPLC-MS were used to determine test compound levels using peak area %. Results (Table 5) were reported as the percentage of test compound remaining after incubation in a given condition relative to test compound present at t=0 in the same condition.

`CN(CCN1CCOCC1)C(=O)c1cccc(C(=O)Nc2ccc(N3CCCCC3)cc2C(=O)Nc2ccn(-c3cccc(C(F)(F)F)c3)n2)c1` [Example 11, N1-Methyl-N1-(2-morpholinoethyl)-N3-(4-(piperidin-1-yl)-2-((1-(3-(trifluoromethyl)phenyl)-1H-pyrazol-3-yl)carbamoyl)phenyl)isophthalamide]: the “Competitive with respect to Pi?” value with NaPi2b is “No”. The “% Inhibition of Serum P elevation” value in data set [1] is 30.0%.
`CN(CCN1CCOCC1)C(=O)c1cccc(C(=O)Nc2ccc(Cl)cc2C(=O)Nc2ccn(-c3cccc(C(F)(F)F)c3)n2)c1` [Example 14, N1-(4-Chloro-2-((1-(3-(trifluoromethyl)phenyl)-1H-pyrazol-3-yl)carbamoyl)phenyl)-N3-methyl-N3-(2-morpholinoethyl)isophthalamide 2,2,2-trifluoroacetate]: in data set [2], the “Mean % inhibition Urine Pout/P consumed” value was 12%. Further, in data set [3], the “% remaining, SGF” value is 93% and the “% remaining, SIF” value is on record as 72%.
As for `O=C(O)CCOCCOCCOCCNC(=O)Cc1cccc(SCc2cccc(C(=O)Nc3ccc(N4CCCCC4)cc3C(=O)Nc3ccn(-c4cccc(C(F)(F)F)c4)n3)c2)c1` [Example 26, 2-Oxo-1-(3-((3-((4-(piperidin-1-yl)-2-((1-(3-(trifluoromethyl)phenyl)-1H-pyrazol-3-yl)carbamoyl)phenyl)carbamoyl)benzyl)thio)phenyl)-6,9,12-trioxa-3-azapentadecan-15-oic acid], the “Competitive with respect to Pi?” value in the data set with NaPi2b was “No”. In data set [3], the “% remaining, SGF” value is recorded as 91% and the “% remaining, SIF” value is 95%.
